# Measurements from patent US20050239805A1, “Mixtures of fused pyrimidinones and dinitrophenolic compounds useful for controlling powdery mildews” (priority 2002, published 2005).
# Tests used:
# [1] = tested on: Erysiphe graminis f. sp. tritici; experiment: Test A: preventive spray on wheat seedlings, wheat powdery mildew disease control; assay type: in vivo, Erysiphe graminis f. sp. tritici (wheat seedlings); settings: average of three replicates
# Protocol: The formulation containing a compound of component (1) is dissolved in water to form a stock solution. For testing component (1) individually the stock solution is diluted to the final desired concentration to form a test solution. For example, the compositions of component (1) (e.g., Compound 1 of Index Table A), either alone or in combination, are sprayed at 0.08 or 0.4 ppm to the point of run-off on the test plants, equivalent to a rate of 0.2 or 1 g/ha, respectively.
# The commercially available formulation of component (2) (e.g. the Karathane® 19.5% wettable powder formulation of dinocap) is suspended in water to form a stock suspension. For testing component (2) individually the stock suspension is diluted to the final desired concentration to form a test suspension. For example, dinocap, either alone or in combination, is sprayed at 10, 40 or 200 ppm to the point of run-off on the test plants, equivalent to a rate of 25, 100 or 500 g/ha, respectively.
# For testing combinations, the stock suspensions of the individual active ingredients prepared as above are then combined in the appropriate ratio, and diluted to the final desired concentration to form a test suspension.
# The resulting test suspensions are then used in the following tests. Test suspensions are sprayed to the point of run-off on the test plants at the rates of active ingredient described below. The tests were replicated three times and the results reported as the average of the three replicates.
# The test suspension was sprayed to the point of run-off on wheat seedlings. The following day the seedlings were inoculated with a spore dust of Erysiphe graminis f. sp. tritici, (the causal agent of wheat powdery mildew) and incubated in a growth chamber at 20° C. for 8 days, after which disease ratings were made.
# Results for Test A are given in Table A. In the table, a rating of 100 indicates 100% disease control and a rating of 0 indicates no disease control (relative to the controls). Columns labeled Observed Disease Control indicates the average of three replications. Columns labeled Expected Disease Control indicate the expected value for each treatment mixture using the Colby equation.
Compound,"Observed Disease Control ([1]; application rate 0.08 ppm, inoculated day after spray, rated after 8 days at 20° C.)","Observed Disease Control ([1]; application rate 0.4 ppm, rated after 8 days)",melting point,"Observed Disease Control ([1]; application rate 10 ppm, rated after 8 days)","Observed Disease Control ([1]; application rate 40 ppm, rated after 8 days)","Observed Disease Control ([1]; application rate 200 ppm, rated after 8 days)"
"CCCOc1nc2ccc(I)cc2c(=O)n1CCC [Compound 1, 6-iodo-3-propyl-2-propyloxy-4(3H)-quinazolinone]",80%,99%,48 to 49 °C,–,–,–
"2,6-dinitro-4-octylphenyl crotonates and 2,4-dinitro-6-octylphenyl crotonates [Dinocap]",–,–,–,45%,76%,98%
